In this assay the test system is rabbits with normal intraocular pressure. Briefly: Experiment 1: ocular hypotensive effect of eye drops (applanation pneumatonograph). The class given is in vivo, Male Dutch species coloured rabbits. The following applies: for Difference in IOP between the control and test eyes: 50 µl instilled. The protocol: The ocular hypotensive effect of the eye drops of this invention was investigated in rabbits. The same experiment was also conducted using a representative β-adrenergic blocking agent, and its ocular hypotensive effect was compared with that of eye drops of this invention. Methods: According to the formulations described in Examples 1, 2 and 3, three kinds of eye drops respectively containing 0.5, 0.05 and 0.005% of the compound (1) were prepared. As a negative control, eye drops not containing compound (1), which is eye drops described in Reference Example below, were used. The positive control was commercially available eye drops containing timolol maleate (0.5% equivalent of free base) as an active ingredient. Male Dutch species coloured rabbits (body weight: ca. 2 kg) with normal intraocular pressure were used in the experiment. Each of the test solutions (three kinds of eye drops containing 0.5, 0.05 or 0.005% of ifenprodil) (50 µl) was instilled into one eye of each rabbit, and the control solution free of ifenprodil (50 µl), the eye drops described in Reference Example, into the fellow eye which served as a control. For each solution, six rabbits were used. After anesthesia of the corneal surface by instillating 5 µl of 0.4% oxybuprocaine hydrochloride, the intraocular pressure was measured using an applanation pneumatonograph (Alcon) before and after the instillation of the test solution and control solution. Measurement of intraocular pressure after the instillation was conducted with one-hour intervals until six hours - nine hours post-instillation.

Setting [1] is: eye drops 0.5%, one hour after instillation, difference from control eye.

Where a name gives a salt, the structure may show the parent alone.

Turning to `CC(C)(C)NC[C@H](O)COc1nsnc1N1CCOCC1` [Timolol maleate, timolol maleate, reference compound], the “Difference in IOP between the control and test eyes” value (“Difference” for short) by setting is: (eye drops 0.5% free base, 1 hr) -0.88 mmHg; (eye drops 0.5% free base, 2 hr) -0.58 mmHg; (eye drops 0.5% free base, 4 hr) -0.25 mmHg; (eye drops 0.5% free base, 6 hr) -0.13 mmHg. In addition, the “average IOP reduction” value under setting [1] is reported as 0.9 mmHg and the “average IOP reduction” value (eye drops 0.5%, two hours after administration) is recorded as 0.6 mmHg.
Take `CC(C(O)c1ccc(O)cc1)N1CCC(Cc2ccccc2)CC1` (centres unmarked) [Compound (1), 2-(4-benzylpiperidino)-1-(4-hydroxyphenyl)-1-propanol]: the IOP reduction result (eye drops 0.005%) is reported as “produced IOP reduction which varies depending on concentration of compound (1)”. The “Difference” value was -0.79 mmHg (eye drops 0.005% free base, 1 hr); -0.75 mmHg (eye drops 0.005% free base, 2 hr); -0.79 mmHg (eye drops 0.005% free base, 4 hr); -0.17 mmHg (eye drops 0.005% free base, 6 hr); -1.79 mmHg (eye drops 0.05% free base, 1 hr); -0.96 mmHg (eye drops 0.05% free base, 2 hr). The “Difference” value (eye drops 0.05% free base, 4 hr) is reported as -0.67 mmHg; the “Difference” value (eye drops 0.05% free base, 6 hr) is -0.38 mmHg; the “Difference” value (eye drops 0.5% free base, 1 hr) is given as -2.67 mmHg; the “Difference” value (eye drops 0.5% free base, 2 hr) is on record as -2.17 mmHg; the “Difference” value (eye drops 0.5% free base, 4 hr) is on record as -1.17 mmHg; the “Difference” value (eye drops 0.5% free base, 6 hr) is recorded as -1.13 mmHg. Moreover, the “average IOP reduction” value by setting is: (eye drops 0.05%, one hour after administration) 1.8 mmHg; under setting [1], 2.7 mmHg. Also, the “duration of ocular hypotensive effect” value (eye drops 0.5%) is recorded as “retained for nine hours after instillation”. Moreover, for the setting “eye drops 0.5%”, the “time of maximal IOP reduction” value was “one hour after instillation”.

For the origin of these results see EP0728480A1, “Use of ifenprodil for treatment of elevated intraocular pressure” (ROHTO PHARMACEUTICAL CO., LTD., priority 1995, dated 1996).
